Article PMC5844530, “Fosmetpantotenate (RE-024), a phosphopantothenate replacement therapy for pantothenate kinase-associated neurodegeneration: Mechanism of action and efficacy in nonclinical models” (PLoS ONE, 2018)
“And” between values parts separate entries of the source, which are not always exact repeats. Equal entries are not always repeated.

How the values were obtained:
[1] = Pharmacokinetics in whole blood, CD-1 mice; settings: for % Parent AUCAll: CD1 mouse, metabolite AUCall/Parent AUCall x 100; for Whole Blood Conc. of compound 2: CD-1 mice; for concentration at 0.083 h / concentration at 2 h / concentration at 4 h / concentration at 8 h / concentration at 0.333 h / concentration at 0.5 h / concentration at 1 h: male, CD-1, mouse, whole blood, po, Whole Blood Conc. of compound 2, CD-1 mice
Protocol: The whole blood samples (0.5 mL) were collected into syringes that were prefilled with 2.5 mL of ice-cold 0.1% formic acid in acetonitrile. The volume ratio of the whole blood to 0.1% formic acid in acetonitrile was 1/5 (v/v). Samples were frozen (-70°C) until analyzed by LC-MS/MS.
Standard curves and quality control (QC) samples were prepared fresh on the day of analysis by serial dilution of the standard mixture in quenched whole blood (1 part of blood to 5 parts of 0.1% formic acid in acetonitrile) and centrifuged. […] The frozen study samples were thawed in an ice/water bath and centrifuged. Supernatant (50 μL) from standards, QC samples, and study samples was transferred to a 96-well plate and dried completely under nitrogen. The dried residues were reconstituted with 100 μL of 0.1% formic acid in water containing internal standard (5 ng/mL of ^15N/^13C3-RE-024-02) and analyzed by LC-MS/MS.
LC-MS/MS analysis for blood pharmacokinetic samples: Samples were analyzed using an Agilent 1100 binary pump (Agilent Technologies, Santa Clara, CA, USA), connected to an AB Sciex API 6500 mass spectrometer (SCIEX, Framingham, MA, USA). An electrospray ionization source was used, scanning in the positive mode. […] The chromatography column was a Varian Metasil AQ 120–5 C18 column, 5 μm, 50 x 2.00 mm (Part No. A0530050X020) at ambient temperature, with a 0.5 mL/min flow rate and a 20 μL injection volume. Mobile phase (A) consisted of 0.1% formic acid in water; while mobile phase (B) consisted of 0.1% formic acid in acetonitrile:water (9:1, v/v).
Quantitation of in vivo samples: Peak areas were integrated using Analyst software (AB Sciex, Concord, Ontario, Canada). […] Calibration standards (at a minimum 7 per curve) were fit by linear regression with (1/x^2) weighting. QC samples were used (triplicate) at 3 concentrations for all tandem mass spectrometry (MS/MS) runs.
Pharmacokinetic calculations: PK analysis was performed using Phoenix WinNonlin®, Build 6.3.0.395 (Certara, Princeton, NJ, USA) using a non-compartmental model (PO dose = model 200 for extravascular dosing). […] Post-dose concentrations below the limit of quantitation (BLQ) were omitted from calculation.

[2] = Pharmacokinetics in whole blood, Sprague-Dawley rats; settings: for % Parent AUCAll: Sprague-Dawley rat, metabolite AUCall/Parent AUCall x 100; for Whole Blood Conc. of compound 2: Sprague-Dawley rats; for concentration at 4 h / concentration at 8 h / concentration at 2 h / concentration at 0.5 h: Sprague-Dawley, rat, whole blood, po, Whole Blood Conc. of compound 2, Sprague-Dawley rats
[3] = Pharmacokinetics in whole blood, cynomolgus monkeys
[4] = 100 mg/kg, single 100 mg/kg RE-024-02 PO, LLOQ 3 ng/mL
[5] = 100 mg/kg, single 100 mg/kg RE-024-02 PO, LLOQ 10.2 nM

## COC(=O)CCNC(=O)[C@@H]1OP(=O)(O)OCC1(C)C [Compound 2]
[1]; 100 mg/kg PO
  % Parent AUCAll: 8,550%
[1]; 300 mg/kg PO
  % Parent AUCAll: 29,800%
[1]; 700 mg/kg PO
  % Parent AUCAll: 7,220%
[1]; single 300 mg/kg RE-024-02 PO, 0.333 hr, LLOQ 3 ng/mL, 300 mg/kg
  Whole Blood Conc. of compound 2: 495 ng/mL and 550.2 ng/mL and 391.2 ng/mL
[1]; single 300 mg/kg RE-024-02 PO, 0.333 hr, LLOQ 10.2 nM, 300 mg/kg
  Whole Blood Conc. of compound 2: 1676.7 nM and 1863.6 nM and 1325.1 nM
[1]; single 300 mg/kg RE-024-02 PO, 0.5 hr, LLOQ 3 ng/mL, 300 mg/kg
  Whole Blood Conc. of compound 2: 472.2 ng/mL and 328.2 ng/mL and 282 ng/mL
[1]; single 300 mg/kg RE-024-02 PO, 0.5 hr, LLOQ 10.2 nM, 300 mg/kg
  Whole Blood Conc. of compound 2: 1599.4 nM and 1111.7 nM and 955.2 nM
[1]; single 300 mg/kg RE-024-02 PO, 4 hr, LLOQ 3 ng/mL, 300 mg/kg
  Whole Blood Conc. of compound 2: 15.4 ng/mL and 22.8 ng/mL and 26.2 ng/mL
[1]; single 300 mg/kg RE-024-02 PO, 4 hr, LLOQ 10.2 nM, 300 mg/kg
  Whole Blood Conc. of compound 2: 52.2 nM and 77.2 nM and 88.6 nM
[1]; single 700 mg/kg RE-024-02 PO, 0.333 hr, LLOQ 3 ng/mL, 700 mg/kg
  Whole Blood Conc. of compound 2: 1656 ng/mL
[1]; single 700 mg/kg RE-024-02 PO, 0.333 hr, LLOQ 10.2 nM, 700 mg/kg
  Whole Blood Conc. of compound 2: 5609.2 nM
[1]; single 700 mg/kg RE-024-02 PO, 1 hr, LLOQ 3 ng/mL, 700 mg/kg
  Whole Blood Conc. of compound 2: 318 ng/mL and 373.2 ng/mL and 381 ng/mL
[1]; single 700 mg/kg RE-024-02 PO, 1 hr, LLOQ 10.2 nM, 700 mg/kg
  Whole Blood Conc. of compound 2: 1077.1 nM and 1264.1 nM and 1290.5 nM
[1]; single 700 mg/kg RE-024-02 PO, 4 hr, LLOQ 3 ng/mL, 700 mg/kg
  Whole Blood Conc. of compound 2: 84 ng/mL and 92.4 ng/mL and 88.2 ng/mL
[1]; single 700 mg/kg RE-024-02 PO, 4 hr, LLOQ 10.2 nM, 700 mg/kg
  Whole Blood Conc. of compound 2: 284.5 nM and 313 nM and 298.8 nM
[1]; [4]
  concentration at 0.083 h: 17.4 ng/mL
  concentration at 2 h: 5.1 ng/mL
  concentration at 8 h: 3.5 ng/mL
[1]; [5]
  concentration at 0.083 h: 58.9 nM
  concentration at 2 h: 17.3 nM
  concentration at 8 h: 11.9 nM
[1]; 100 mg/kg, single 100 mg/kg RE-024-02 PO, 4 hr, LLOQ 3 ng/mL
  concentration at 4 h: 3.5 ng/mL
[1]; 100 mg/kg, single 100 mg/kg RE-024-02 PO, 4 hr, LLOQ 10.2 nM
  concentration at 4 h: 11.7 nM
[1]; 300 mg/kg, single 300 mg/kg RE-024-02 PO, 0.333 hr, LLOQ 3 ng/mL
  concentration at 0.333 h: 443 ng/mL
[1]; 300 mg/kg, single 300 mg/kg RE-024-02 PO, 0.333 hr, LLOQ 10.2 nM
  concentration at 0.333 h: 1500 nM
[1]; 300 mg/kg, single 300 mg/kg RE-024-02 PO, 0.5 hr, LLOQ 3 ng/mL
  concentration at 0.5 h: 254 ng/mL
[1]; 300 mg/kg, single 300 mg/kg RE-024-02 PO, 0.5 hr, LLOQ 10.2 nM
  concentration at 0.5 h: 860 nM
[1]; 300 mg/kg, single 300 mg/kg RE-024-02 PO, 4 hr, LLOQ 3 ng/mL
  concentration at 4 h: 21.9 ng/mL
[1]; 300 mg/kg, single 300 mg/kg RE-024-02 PO, 4 hr, LLOQ 10.2 nM
  concentration at 4 h: 74.2 nM
[1]; 700 mg/kg, single 700 mg/kg RE-024-02 PO, 0.333 hr, LLOQ 3 ng/mL
  concentration at 0.333 h: 1910 ng/mL
[1]; 700 mg/kg, single 700 mg/kg RE-024-02 PO, 0.333 hr, LLOQ 10.2 nM
  concentration at 0.333 h: 6460 nM
[1]; 700 mg/kg, single 700 mg/kg RE-024-02 PO, 1 hr, LLOQ 3 ng/mL
  concentration at 1 h: 541 ng/mL
[1]; 700 mg/kg, single 700 mg/kg RE-024-02 PO, 1 hr, LLOQ 10.2 nM
  concentration at 1 h: 1830 nM
[1]; 700 mg/kg, single 700 mg/kg RE-024-02 PO, 4 hr, LLOQ 3 ng/mL
  concentration at 4 h: 104 ng/mL
[1]; 700 mg/kg, single 700 mg/kg RE-024-02 PO, 4 hr, LLOQ 10.2 nM
  concentration at 4 h: 354 nM
[2]; 300 mg/kg PO
  % Parent AUCAll: 1,250%
[2]; 700 mg/kg PO
  % Parent AUCAll: 220%
[2]; single 300 mg/kg RE-024-02 PO, time 2, LLOQ 3 ng/mL, 300 mg/kg
  Whole Blood Conc. of compound 2: 38.46 ng/mL and 47.10 ng/mL
[2]; single 300 mg/kg RE-024-02 PO, time 2, LLOQ 10.2 nM, 300 mg/kg
  Whole Blood Conc. of compound 2: 130.27 nM and 159.54 nM
[2]; single 300 mg/kg RE-024-02 PO, time 8, LLOQ 3 ng/mL, 300 mg/kg
  Whole Blood Conc. of compound 2: 5.25 ng/mL and 7.14 ng/mL
[2]; single 300 mg/kg RE-024-02 PO, time 8, LLOQ 10.2 nM, 300 mg/kg
  Whole Blood Conc. of compound 2: 17.78 nM and 24.18 nM
[2]; single 700 mg/kg RE-024-02 PO, time 0.5, LLOQ 3 ng/mL, 700 mg/kg
  Whole Blood Conc. of compound 2: 247.20 ng/mL and 285.00 ng/mL
[2]; single 700 mg/kg RE-024-02 PO, time 0.5, LLOQ 10.2 nM, 700 mg/kg
  Whole Blood Conc. of compound 2: 837.31 nM and 965.35 nM
[2]; single 700 mg/kg RE-024-02 PO, time 2, LLOQ 3 ng/mL, 700 mg/kg
  Whole Blood Conc. of compound 2: 61.80 ng/mL and 118.20 ng/mL
[2]; single 700 mg/kg RE-024-02 PO, time 2, LLOQ 10.2 nM, 700 mg/kg
  Whole Blood Conc. of compound 2: 209.33 nM and 400.37 nM
[2]; 100 mg/kg, single 100 mg/kg RE-024-02 PO, time 4, LLOQ 3 ng/mL
  concentration at 4 h: 5.57 ng/mL
[2]; 100 mg/kg, single 100 mg/kg RE-024-02 PO, time 4, LLOQ 10.2 nM
  concentration at 4 h: 18.9 nM
[2]; 100 mg/kg, single 100 mg/kg RE-024-02 PO, time 8, LLOQ 3 ng/mL
  concentration at 8 h: 6.42 ng/mL
[2]; 100 mg/kg, single 100 mg/kg RE-024-02 PO, time 8, LLOQ 10.2 nM
  concentration at 8 h: 21.8 nM
[2]; 300 mg/kg, single 300 mg/kg RE-024-02 PO, time 2, LLOQ 10.2 nM
  concentration at 2 h: 258 nM
[2]; 300 mg/kg, single 300 mg/kg RE-024-02 PO, time 8, LLOQ 3 ng/mL
  concentration at 8 h: 9.36 ng/mL
[2]; 300 mg/kg, single 300 mg/kg RE-024-02 PO, time 8, LLOQ 10.2 nM
  concentration at 8 h: 31.7 nM
[2]; male, 300 mg/kg, single 300 mg/kg RE-024-02 PO, time 2, LLOQ 3 ng/mL
  concentration at 2 h: 76.2 ng/mL
[2]; male, 700 mg/kg, single 700 mg/kg RE-024-02 PO, time 0.5, LLOQ 3 ng/mL
  concentration at 0.5 h: 452 ng/mL
[2]; male, 700 mg/kg, single 700 mg/kg RE-024-02 PO, time 0.5, LLOQ 10.2 nM
  concentration at 0.5 h: 1530 nM
[2]; male, 700 mg/kg, single 700 mg/kg RE-024-02 PO, time 2, LLOQ 3 ng/mL
  concentration at 2 h: 105 ng/mL
[2]; male, 700 mg/kg, single 700 mg/kg RE-024-02 PO, time 2, LLOQ 10.2 nM
  concentration at 2 h: 356 nM
[3]; Cynomolgus monkey, 300 mg/kg PO, metabolite AUCall/Parent AUCall x 100
  % Parent AUCAll: 132%
[3]; cynomolgus monkey, whole blood, po, 300 mg/kg, Concentration of compound 2 in whole blood, cynomolgus monkeys, single oral 300 mg/kg fosmetpantotenate, 0.5 hr, LLOQ 2.03 nM
  concentration at 0.5 h: 1860 nM
[3]; cynomolgus monkey, whole blood, po, 300 mg/kg, Concentration of compound 2 in whole blood, cynomolgus monkeys, single oral 300 mg/kg fosmetpantotenate, 1 hr, LLOQ 2.03 nM
  concentration at 1 h: 1970 nM
[3]; cynomolgus monkey, whole blood, po, 300 mg/kg, Concentration of compound 2 in whole blood, cynomolgus monkeys, single oral 300 mg/kg fosmetpantotenate, 4 hr, LLOQ 2.03 nM
  concentration at 4 h: 2350 nM
[3]; cynomolgus monkey, whole blood, po, 300 mg/kg, Concentration of compound 2 in whole blood, cynomolgus monkeys, single oral 300 mg/kg fosmetpantotenate, 8 hr, LLOQ 2.03 nM
  concentration at 8 h: 1150 nM
[3]; cynomolgus monkeys, single oral 300 mg/kg fosmetpantotenate, 0.083 hr, LLOQ 2.03 nM
  Concentration of compound 2 in whole blood: BQL
[3]; cynomolgus monkeys, single oral 300 mg/kg fosmetpantotenate, 0.5 hr, LLOQ 2.03 nM, 300 mg/kg
  Concentration of compound 2 in whole blood: 1210.45 nM
[3]; cynomolgus monkeys, single oral 300 mg/kg fosmetpantotenate, 1 hr, LLOQ 2.03 nM, 300 mg/kg
  Concentration of compound 2 in whole blood: 2023.57 nM
[3]; cynomolgus monkeys, single oral 300 mg/kg fosmetpantotenate, 4 hr, LLOQ 2.03 nM, 300 mg/kg
  Concentration of compound 2 in whole blood: 4441.22 nM
[3]; cynomolgus monkeys, single oral 300 mg/kg fosmetpantotenate, 8 hr, LLOQ 2.03 nM, 300 mg/kg
  Concentration of compound 2 in whole blood: 996.85 nM
